# Experimental data from ChEMBL document CHEMBL3217509, “Discovery of an HIV integrase inhibitor with an excellent resistance profile” (Medchemcomm, 2013).
# Active and inactive are the calls of the source. The rule behind the calls is not given here.
# Tests used:
# [1] = Half life in rat at 2 mg/kg, po and 2 mg/kg, iv; type: ADME, organism-based; conditions: in vivo
# [2] = system: Human immunodeficiency virus 1; experiment: Resistance ratio of IC50 for MLV pseudotyped HIV1 NL4-3 expressing integrase T97A mutant to IC50 for MLV pseudotyped HIV1 NL4-3 expressing wild type integrase; type: functional
# [3] = system: Human immunodeficiency virus 1; experiment: Inhibition of MLV pseudotyped HIV1 NL4-3 expressing integrase G140S/Q148K mutant; type: functional, organism-based
# [4] = Drug metabolism in iv dosed dog urine; type: ADME, organism-based, Canis lupus familiaris; conditions: in vivo
# [5] = system: Human immunodeficiency virus 1; experiment: Antiviral activity against HIV1 CMU06 infected in human PBMC after 5 days by human JC53BL cell-based beta-galactosidase reporter gene assay; type: functional, organism-based; conditions: Human immunodeficiency virus 1, CMU06, JC53BL, 120 h
# [6] = Clearance in rat liver microsomes assessed per mg of protein; type: ADME; conditions: read-out: CLH
# [7] = system: Human immunodeficiency virus 1; experiment: Antiviral activity against HIV1 UG92037 infected in human PBMC after 5 days by human JC53BL cell-based beta-galactosidase reporter gene assay; type: functional, organism-based; conditions: Human immunodeficiency virus 1, UG92037, JC53BL, 120 h
# [8] = system: Human immunodeficiency virus 1; experiment: Resistance ratio of IC50 for MLV pseudotyped HIV1 NL4-3 expressing integrase E92Q/N155H mutant to IC50 for MLV pseudotyped HIV1 NL4-3 expressing wild type integrase; type: functional
# [9] = Inhibition of DNA polymerase beta (unknown origin); parameters: species or system Homo sapiens
# [10] = Selectivity ratio of CC50 for HIV1 NL4-3 infected in human MT2 cells to IC50 for human MT2 cells; type: ADME, cell-based; conditions: read-out: Ratio CC50/IC50
# [11] = Half life in healthy human at 100 ug, iv; type: ADME, organism-based; conditions: in vivo
# [12] = system: Human immunodeficiency virus 1; experiment: Resistance ratio of IC50 for MLV pseudotyped HIV1 NL4-3 expressing integrase N155H mutant to IC50 for MLV pseudotyped HIV1 NL4-3 expressing wild type integrase; type: functional
# [13] = Intrinsic clearance in human hepatocytes assessed assessed per million of cells by LC-MS/MS analysis; type: ADME, cell-based, Hepatocyte; conditions: read-out: CLH
# [14] = system: Canis familiaris; experiment: Clearance in dog at 0.1 mg/kg, iv; type: ADME, organism-based, Canis lupus familiaris; parameters: dose 0.1 mg/kg, route intravenous; conditions: in vivo
# [15] = Intrinsic clearance in human liver microsomes assessed per mg of protein by LC-MS/MS analysis in presence of UDPGA; type: ADME; conditions: read-out: CLH
# [16] = Inhibition of DNA polymerase gamma (unknown origin); parameters: species or system Homo sapiens
# [17] = system: Human immunodeficiency virus 1; experiment: Resistance ratio of IC50 for MLV pseudotyped HIV1 NL4-3 expressing integrase G140A mutant to IC50 for MLV pseudotyped HIV1 NL4-3 expressing wild type integrase; type: functional
# [18] = Clearance in rat liver microsomes assessed per mg of protein in presence of UDPGA; type: ADME; conditions: read-out: CLH
# [19] = system: Human immunodeficiency virus 1; experiment: Resistance ratio of IC50 for MLV pseudotyped HIV1 NL4-3 expressing integrase T125K/F121Y mutant to IC50 for MLV pseudotyped HIV1 NL4-3 expressing wild type integrase; type: functional
# [20] = system: Human immunodeficiency virus 1; experiment: Antiviral activity against HIV1 HT92599 infected in human PBMC after 5 days by human JC53BL cell-based beta-galactosidase reporter gene assay; type: functional, organism-based; conditions: Human immunodeficiency virus 1, HT92599, JC53BL, 120 h
# [21] = Volume of distribution at steady state in rat at 2 mg/kg, po and 2 mg/kg, iv; type: ADME, organism-based; conditions: in vivo, read-out: Vdss
# [22] = system: Human immunodeficiency virus 1; experiment: Antiviral activity against HIV1 BR92004 infected in human PBMC after 5 days by human JC53BL cell-based beta-galactosidase reporter gene assay; type: functional, organism-based; conditions: Human immunodeficiency virus 1, BR92004, JC53BL, 120 h
# [23] = system: Human immunodeficiency virus 1; experiment: Resistance ratio of IC50 for MLV pseudotyped HIV1 NL4-3 expressing integrase E92Q mutant to IC50 for MLV pseudotyped HIV1 NL4-3 expressing wild type integrase; type: functional
# [24] = Partition coefficient, pKa of the compound; type: physicochemical; conditions: octanol/water
# [25] = system: Human immunodeficiency virus 1; experiment: Antiviral activity against HIV1 NL4-3 infected in human PBMC after 5 days by human JC53BL cell-based beta-galactosidase reporter gene assay; type: functional, organism-based; conditions: Human immunodeficiency virus 1, NL4-3, JC53BL, 120 h
# [26] = system: Human immunodeficiency virus 1; experiment: Resistance ratio of IC50 for MLV pseudotyped HIV1 NL4-3 expressing integrase F121Y mutant to IC50 for MLV pseudotyped HIV1 NL4-3 expressing wild type integrase; type: functional
# [27] = system: Human immunodeficiency virus 1; experiment: Resistance ratio of IC50 for MLV pseudotyped HIV1 NL4-3 expressing integrase G140S mutant to IC50 for MLV pseudotyped HIV1 NL4-3 expressing wild type integrase; type: functional
# [28] = Clearance in rat hepatocytes assessed per million of cells; type: ADME, cell-based, Hepatocyte; conditions: read-out: CLH
# [29] = system: Human immunodeficiency virus 1; experiment: Antiviral activity against HIV1 UG94118 infected in human PBMC after 5 days by human JC53BL cell-based beta-galactosidase reporter gene assay; type: functional, organism-based; conditions: Human immunodeficiency virus 1, UG94118, JC53BL, 120 h
# [30] = system: Human immunodeficiency virus 1; experiment: Antiviral activity against HIV1 BaL infected in human PBMC after 5 days by human JC53BL cell-based beta-galactosidase reporter gene assay; type: functional, organism-based; conditions: Human immunodeficiency virus 1, BaL, 120 h
# [31] = Inhibition of DNA polymerase alpha (unknown origin); parameters: species or system Homo sapiens
# [32] = system: Human immunodeficiency virus 1; experiment: Antiviral activity against HIV1 infected in human MT2 cells assessed as emergence of breakthrough at 10 times IC50; type: functional, organism-based
# [33] = Volume of distribution at steady state in healthy human at 100 ug, iv; type: ADME, organism-based; conditions: in vivo, read-out: Vdss
# [34] = system: Human immunodeficiency virus 1; experiment: Antiviral activity against HIV1 NL4-3 infected in human MT2 cells after 3 days by human JC53BL cell-based beta-galactosidase reporter gene assay; type: functional, organism-based; conditions: Human immunodeficiency virus 1, NL4-3, JC53BL, 72 h
# [35] = system: Rattus norvegicus; experiment: Clearance in rat at 2 mg/kg, po and 2 mg/kg, iv; type: ADME, organism-based; conditions: in vivo
# [36] = system: Human immunodeficiency virus 1; experiment: Resistance ratio of IC50 for MLV pseudotyped HIV1 NL4-3 expressing integrase V72I/F121Y/T125K mutant to IC50 for MLV pseudotyped HIV1 NL4-3 expressing wild type integrase; type: functional
# [37] = system: Human immunodeficiency virus 1; experiment: Resistance ratio of IC50 for MLV pseudotyped HIV1 NL4-3 expressing integrase V72I/F121Y/T125K/V151L mutant to IC50 for MLV pseudotyped HIV1 NL4-3 expressing wild type integrase; type: functional
# [38] = Volume of distribution at steady state in dog at 0.1 mg/kg, iv; type: ADME, organism-based, Canis lupus familiaris; parameters: dose 0.1 mg/kg, route intravenous; conditions: in vivo, read-out: Vdss
# [39] = Clearance in dog hepatocytes assessed per million of cells; type: ADME, cell-based, Canis lupus familiaris, Hepatocyte; conditions: read-out: CLH
# [40] = Activity at UGT1A2 (unknown origin) assessed as metabolite metabolism; type: ADME; conditions: human
# [41] = Plasma protein binding in human; type: ADME, cell-free; conditions: read-out: PPB (converted)
# [42] = system: Rattus norvegicus; experiment: Toxicity in rat assessed as histopathological abnormalities at 25 times antiviral IC50 administered for 7 days; type: organism-based; conditions: in vivo, 168 h
# [43] = system: Human immunodeficiency virus 1; experiment: Antiviral activity against HIV1 ZA97003 infected in human PBMC after 5 days by human JC53BL cell-based beta-galactosidase reporter gene assay; type: functional, organism-based; conditions: Human immunodeficiency virus 1, ZA97003, JC53BL, 120 h
# [44] = Half life in dog at 0.1 mg/kg, iv; type: ADME, organism-based, Canis lupus familiaris; parameters: dose 0.1 mg/kg, route intravenous; conditions: in vivo
# [45] = Lipophilicity, log D of the compound; type: physicochemical; conditions: octanol/water
# [46] = system: Human immunodeficiency virus 1; experiment: Resistance ratio of IC50 for MLV pseudotyped HIV1 NL4-3 expressing integrase S153Y mutant to IC50 for MLV pseudotyped HIV1 NL4-3 expressing wild type integrase; type: functional
# [47] = system: Human immunodeficiency virus 1; experiment: Resistance ratio of IC50 for MLV pseudotyped HIV1 NL4-3 expressing integrase G140S/Q148h mutant to IC50 for MLV pseudotyped HIV1 NL4-3 expressing wild type integrase; type: functional
# [48] = Clearance in healthy human at 100 ug, iv; type: ADME, organism-based; conditions: in vivo
# [49] = molecular target: Human immunodeficiency virus type 1 integrase (Human immunodeficiency virus 1, UniProt Q7ZJM1); experiment: Inhibition of HIV1 HXB2 full length amino terminal 6-HIs tagged integrase expressed in Escherichia coli using [3H]thymidine-labeled DNA/biotinylated ds-DNA as substrate assessed as inhibition of strand transfer after 50 mins by scintillation proximity assay
# [50] = Cytotoxicity against human MT2 cells after 3 days by CellTitre-Glo assay; type: cell-based
# [51] = system: Human immunodeficiency virus 1; experiment: Resistance ratio of IC50 for MLV pseudotyped HIV1 NL4-3 expressing integrase E138A mutant to IC50 for MLV pseudotyped HIV1 NL4-3 expressing wild type integrase; type: functional
# [52] = system: Human immunodeficiency virus 1; experiment: Resistance ratio of IC50 for MLV pseudotyped HIV1 NL4-3 expressing integrase Q148H mutant to IC50 for MLV pseudotyped HIV1 NL4-3 expressing wild type integrase; type: functional
# [53] = system: Human immunodeficiency virus 1; experiment: Resistance ratio of IC50 for MLV pseudotyped HIV1 NL4-3 expressing integrase Q148K mutant to IC50 for MLV pseudotyped HIV1 NL4-3 expressing wild type integrase; type: functional
# [54] = Plasma protein binding in rat; type: ADME, cell-free; conditions: read-out: PPB
# [55] = Oral bioavailability in rat at 2 mg/kg; type: ADME, organism-based; conditions: in vivo
# [56] = Plasma protein binding in dog; type: ADME, cell-free, Canis lupus familiaris; conditions: read-out: PPB (converted)
# [57] = Clearance in dog liver microsomes assessed per mg of protein in presence of UDPGA; type: ADME, Canis lupus familiaris; conditions: read-out: CLH
# [58] = system: Human immunodeficiency virus 1; experiment: Resistance ratio of IC50 for MLV pseudotyped HIV1 NL4-3 expressing integrase T66I/S153Y mutant to IC50 for MLV pseudotyped HIV1 NL4-3 expressing wild type integrase; type: functional
# [59] = system: Human immunodeficiency virus 1; experiment: Antiviral activity against HIV1 SF162 infected in human PBMC after 5 days by human JC53BL cell-based beta-galactosidase reporter gene assay; type: functional, organism-based; conditions: Human immunodeficiency virus 1, SF162, JC53BL, 120 h
# [60] = system: Human immunodeficiency virus 1; experiment: Antiviral activity against HIV1 HT92596 infected in human PBMC after 5 days by human JC53BL cell-based beta-galactosidase reporter gene assay; type: functional, organism-based; conditions: Human immunodeficiency virus 1, HT92596, JC53BL, 120 h
# [61] = Intrinsic clearance in human liver microsomes assessed per mg of protein by LC-MS/MS analysis; type: ADME; conditions: read-out: CLH
# Chain of Human immunodeficiency virus type 1 integrase (Q7ZJM1 whole entry): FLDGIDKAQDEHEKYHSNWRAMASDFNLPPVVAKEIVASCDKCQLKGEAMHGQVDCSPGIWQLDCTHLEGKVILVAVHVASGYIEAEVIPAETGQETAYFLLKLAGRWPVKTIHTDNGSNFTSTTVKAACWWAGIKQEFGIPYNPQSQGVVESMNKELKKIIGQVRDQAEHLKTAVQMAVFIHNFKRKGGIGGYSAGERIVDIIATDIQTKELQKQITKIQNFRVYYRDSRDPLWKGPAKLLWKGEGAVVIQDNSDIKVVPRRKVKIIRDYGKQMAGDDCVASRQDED
smiles,measurement,setting,value
COc1cc(F)ccc1Cn1ccc2c3c(ncc21)C(=O)N(O)CC3 [PF-04776548],half-life,[1],0.3 h
same,Ratio IC50,[2],<10
same,inhibition,[3],inactive
same,Drug metabolism,[4],Active
same,EC50,[5],0.61 nM
same,microsomal CLint,[6],26 µL/min/mg
same,EC50,[7],0.84 nM
same,Ratio IC50,[8],<10
same,IC50,[9],> 100000 nM
same,selectivity ratio,[10],4800
same,half-life,[11],2.8 h
same,Ratio IC50,[12],<10
same,hepatocyte CLint,[13],32.7 µL/min/1e6 cells
same,clearance,[14],24 mL/min/kg
same,microsomal CLint,[15],28 µL/min/mg
same,IC50,[16],7100 nM
same,Ratio IC50,[17],<10
same,microsomal CLint,[18],43 µL/min/mg
same,Ratio IC50,[19],<10
same,EC50,[20],0.37 nM
same,Vd,[21],3 L/kg
same,EC50,[22],0.44 nM
same,Ratio IC50,[23],<10
same,pKa,[24],7.6
same,EC50,[25],0.48 nM
same,Ratio IC50,[26],<10
same,Ratio IC50,[27],<10
same,hepatocyte CLint,[28],33 µL/min/1e6 cells
same,EC50,[29],6.68 nM
same,EC50,[30],2.22 nM
same,IC50,[31],> 100000 nM
same,Activity,[32],Active
same,Vd,[33],5.7 L/kg
same,IC50,[34],1.5 nM
same,clearance,[35],98 mL/min/kg
same,Ratio IC50,[36],<10
same,Ratio IC50,[37],<10
same,Vd,[38],2 L/kg
same,hepatocyte CLint,[39],17 µL/min/1e6 cells
same,Activity,[40],Not Active
same,fraction unbound,[41],0.08
same,Activity,[42],Non-toxic
same,EC50,[43],0.15 nM
same,half-life,[44],1.2 h
same,logD,[45],2.1
same,Ratio IC50,[46],<10
same,Ratio IC50,[47],<10
same,clearance,[48],18 mL/min/kg
same,IC50,[49],40.5 nM
same,CC50 at 72 h,[50],7360 nM
same,Ratio IC50,[51],<10
same,Ratio IC50,[52],<10
same,Ratio IC50,[53],<10
same,fraction unbound,[54],0.09
same,bioavailability,[55],1%
same,fraction unbound,[56],0.16
same,microsomal CLint,[57],21 µL/min/mg
same,Ratio IC50,[58],<10
same,EC50,[59],1.68 nM
same,EC50,[60],0.84 nM
same,microsomal CLint,[61],8.3 µL/min/mg
